In ChEMBL document CHEMBL1121794, “Octanol-physiological buffer distribution coefficients of lipophilic amines by reversed-phase high-performance liquid chromatography and their correlation with biological activity” (J Med Chem, 1981):

Tests used:
Rattus norvegicus [1] = organism: Rattus norvegicus
Description: Apparent partition coefficient was measured as histamine releasing activity in rat mast cells.

[2] = not given; remark: listed apart in the source
[3] = not given; remark: listed apart in the source
Rattus norvegicus [4] = organism: Rattus norvegicus; remark: listed apart in the source
[5] = Dissociation constant (pKa); conditions: octanol/water, pH 7.4
[6] = Partition coefficient (logD7.4); conditions: octanol/water, pH 7.4
[7] = not given; remark: listed apart in the source

Log k': 1.479 | Log k' [2]: 1.593 | Log k' [3]: 1.041 | pKa [5]: 9.5 | logD [6]: 3.24 | Log k' [7]: 2.072
SMILES: CN(C)CCCN1c2ccccc2CCc2ccc(Cl)cc21 [CLOMIPRAMINE]
Papp (Rattus norvegicus [1]): 2.8 | Log 1/ED50 (Rattus norvegicus [4]): 2.22
